Results taken from paper PMC11852804, “Conformational flexibility is a critical factor in designing broad-spectrum human norovirus protease inhibitors” (Journal of Virology, 2025).
Where two headings read alike, the source gives them in different places.

What was measured:
GII.4-Pro HOV [1] = system: GII.4-Pro HOV
Text: FRET protease assay, time-dependent inhibition on GII.4-Pro HOV

GII.4-Pro Sydney [2] = molecular target: T1, GII.4-Pro Sydney (Norovirus Hu/GII.4/Sydney/NSW0514/2012/AU, UniProt K4L8Z7); assay: FRET protease assay, time-dependent inhibition; type: biochemical; details: covalent; GII FRET peptide substrate; pH 8.0, 37 °C, 10 mM DTT; corrected for substrate competition
T1 construct: mature protease cut from ORF1 polyprotein; tag cut with 3C protease when used

GII.3-Pro [3] = molecular target: T2, GII.3-Pro (Norovirus Hu/Texas/TCH04-577/2004/US, UniProt B2DD26); assay: FRET protease assay, time-dependent inhibition; type: biochemical
T2 construct: mature protease cut from ORF1 polyprotein; tag cut with 3C protease when used

GII.4-Pro Sydney [4] = molecular target: T1, GII.4-Pro Sydney; assay: FRET protease assay, time-dependent inhibition; type: biochemical
GII.3-Pro [5] = molecular target: T2, GII.3-Pro; assay: FRET protease assay, time-dependent inhibition; type: biochemical; details: covalent; GII FRET peptide substrate; pH 8.0, 37 °C, 10 mM DTT; corrected for substrate competition
GI.1-Pro [6] = molecular target: T3, GI.1-Pro (Norovirus Hu/1968/US, UniProt Q83883, R1212A); type: biochemical; details: covalent; tight-binding conditions, kchem approximation; GI.1 FRET peptide substrate; pH 8.0, 37 °C, 10 mM DTT; corrected for substrate competition
T3 construct: gene ORF1

GI.1-Pro [7] = molecular target: T4, GI.1-Pro (Norovirus Hu/1968/US, UniProt Q83883); assay: FRET protease assay, time-dependent inhibition; type: biochemical
T4 construct: gene ORF1; mature protease cut from ORF1 polyprotein; pET-46b(+) His-tag with thrombin site, E. coli XJb(DE3); tag cut with thrombin when used
Text: FRET protease assay, time-dependent inhibition on GI.1-Pro

[8] = molecular target: T5, (Norovirus norwalkense, UniProt A9YYE3); assay: FRET protease assay, time-dependent inhibition; type: biochemical
T5 construct: mature protease cut from ORF1 polyprotein; pET-46b(+) His-tag with thrombin site, E. coli XJb(DE3); tag cut with thrombin when used

GII.4-Pro Sydney [9] = molecular target: T6, GII.4-Pro Sydney (Norovirus Hu/GII.4/Sydney/NSW0514/2012/AU, UniProt K4L8Z7, R1120A); details: read-out: KI
Text: (§1) FRET protease assay, time-dependent inhibition on GII.4-Pro Sydney

GII.4-Pro HOV [10] = system: T7, GII.4-Pro HOV; assay: FRET protease assay, time-dependent inhibition; type: biochemical, Norovirus norwalkense; details: covalent; GII FRET peptide substrate; pH 8.0, 37 °C, 10 mM DTT; corrected for substrate competition
T7 construct: mature protease cut from ORF1 polyprotein; pET-46b(+) His-tag with thrombin site, E. coli XJb(DE3); tag cut with thrombin when used

GII.3-Pro [11] = molecular target: GII.3-Pro (Norovirus Hu/Texas/TCH04-577/2004/US, UniProt B2DD26, R1120A); details: read-out: KI
GII.4-Pro Sydney [12] = molecular target: T6, GII.4-Pro Sydney; assay: biochemical; details: read-out: kinact/KI (M^-1s^-1)
Text: as §1

## CCOC(=O)/C=C/[C@H](C[C@@H]1CCNC1=O)NC(=O)[C@@H](CC(=O)[C@@H](NC(=O)c1cc(C)on1)C(C)C)Cc1ccc(F)cc1 [rupintrivir]
GII.4-Pro HOV [1]
  kinact/KI: 6.52 ± 0.77 M⁻¹ s⁻¹
GII.4-Pro HOV [1]; read-out: KI
  KI (inactivation): 564 ± 513 µM
GII.4-Pro Sydney [2]
  KI (inactivation): 1090 µM
GII.3-Pro [3]
  kinact/KI: 5.34 ± 0.52 M⁻¹ s⁻¹
GII.4-Pro Sydney [4]
  kinact/KI: 3.73 ± 0.28 M⁻¹ s⁻¹
GII.3-Pro [5]
  KI (inactivation): 1310 µM
GI.1-Pro [6]
  kinact/KI: 233.5 ± 8.8 M⁻¹ s⁻¹
GI.1-Pro [7]
  kinact/KI: 294 ± 5.7 M⁻¹ s⁻¹
[8]
  kinact/KI: 5.78 ± 0.21 M⁻¹ s⁻¹
GII.4-Pro Sydney [9]
  KI (inactivation): 438 ± 299 µM
GII.4-Pro HOV [10]
  KI (inactivation): 457 ± 52 µM
GII.3-Pro [11]
  KI (inactivation): 94 ± 38 µM
GII.4-Pro Sydney [12]
  kinact/KI: 4.53 ± 0.59 M⁻¹ s⁻¹
